US4695545A, “Culture and process for producing A41030 antibiotics” (Eli Lilly and Company, priority 1984, dated 1987)
Where “and” joins values, the source holds several entries; their conditions need not be identical. Identical values can stand only once.

Assays:
[1] = Electrometric titration (pKa); type: physicochemical; settings: electrometric titration in 66% dimethylformamide in water
Description: Antibiotic A41030 factor A is a white, crystalline solid.

Solubility in solvents = type: physicochemical; settings: qualitative
Description: As many as seven antibiotic factors are recovered from the fermentation and are obtained as a mixture, the A41030 complex. It will be recognized that the ratio of the factors in the A41030 complex will vary, depending upon the fermentation conditions used. The individual factors A, B, C, D, E, F, and G are separated and isolated as individual compounds, as hereinafter described.

Propionibacterium acnes [2] = assay: MIC against Propionibacterium acnes strains, 24-hour agar-dilution; type: cell-based
Description: Antibiotic A41030 factors A, B and C have been tested and found to be active against a genus of anaerobic bacteria identified as Propionibacterium acnes.

Clostridium difficile [3] = assay: MIC anaerobic bacteria, agar-dilution; type: cell-based; settings: Clostridium difficile 2994; agar-dilution (Table 9)
Clostridium perfringens = type: cell-based; settings: Clostridium perfringens 81; agar-dilution
Clostridium septicum = assay: MIC anaerobic bacteria, agar-dilution; type: cell-based; settings: Clostridium septicum 1128
[4] = system: Peptococcus asaccharolyticus; assay: MIC anaerobic bacteria, agar-dilution; type: cell-based; settings: Peptococcus asaccharolyticus 1302
[5] = system: Peptostreptococcus anaerobius; assay: MIC anaerobic bacteria, agar-dilution; type: cell-based; settings: Peptostreptococcus anaerobius 1428
[6] = system: Peptostreptococcus intermedius; assay: MIC anaerobic bacteria, agar-dilution; type: cell-based; settings: Peptostreptococcus intermedius 1264
Propionibacterium acnes [7] = assay: MIC anaerobic bacteria, agar-dilution; type: cell-based; settings: Propionibacterium acnes 79; agar-dilution (Table 9)
Bacteroides corrodens = assay: MIC anaerobic bacteria, agar-dilution; type: cell-based; settings: Bacteroides corrodens 1874
Fusobacterium symbiosum = assay: MIC anaerobic bacteria, agar-dilution; type: cell-based; settings: Fusobacterium symbiosum 1470
[8] = system: Fusobacterium necrophorum; assay: MIC anaerobic bacteria, agar-dilution; type: cell-based; settings: Fusobacterium necrophorum 6054A
Clostridium difficile [9] = assay: MIC against Clostridium difficile strains, agar-dilution; type: cell-based
Description: The A41030 antibiotic factors A, B, C, D, E, F, and G, are also active against a number of strains of Clostridium difficile, as determined by the agardilution method.

Staphylococcus aureus = assay: MIC aerobic bacteria, standard agar-dilution assay; type: cell-based
[10] = system: Staphylococcus epidermidis; assay: MIC aerobic bacteria, standard agar-dilution assay; type: cell-based
Streptococcus pyogenes = assay: MIC aerobic bacteria, standard agar-dilution assay; type: cell-based; settings: Streptococcus pyogenes C203, 24 hours
Streptococcus pneumoniae = assay: MIC aerobic bacteria, standard agar-dilution assay; type: cell-based; settings: Streptococcus pneumoniae Park I, 24 hours
[11] = system: Streptococcus sp. Group D; assay: MIC aerobic bacteria, standard agar-dilution assay; type: cell-based
Haemophilus influenzae = assay: MIC aerobic bacteria, standard agar-dilution assay; type: cell-based
Escherichia coli = assay: MIC aerobic bacteria, standard agar-dilution assay; type: cell-based
Klebsiella pneumoniae = assay: MIC aerobic bacteria, standard agar-dilution assay; type: cell-based; settings: Klebsiella pueumoniae X68, 24 hours
Enterobacter cloacae = assay: MIC aerobic bacteria, standard agar-dilution assay; type: cell-based
Salmonella typhi = assay: MIC aerobic bacteria, standard agar-dilution assay; type: cell-based
Serratia marcescens = assay: MIC aerobic bacteria, standard agar-dilution assay; type: cell-based; settings: Serratia marcescens X99, 24 hours
Citrobacter freundii = assay: MIC aerobic bacteria, standard agar-dilution assay; type: cell-based; settings: Citrobacter freundii CF17, 24 hours
S. pneumoniae = assay: Experimental bacterial infection in mice, subcutaneous ED50; type: in vivo; settings: two doses subcutaneously
Protocol: (§1) All of the A41030 factors tested have shown in vivo antimicrobial activity against experimental bacterial infections. When two doses of test compound were administered subcutaneously to mice in illustrative infections, the activity observed is measured as an ED50 value [effective dose in mg./kg. to protect fifty percent of the test animals: See Warren Wick, et al., J. Bacteriol. 81, 233-235 (1961)].

S. pyogenes [12] = assay: as above; type: in vivo; settings: two doses subcutaneously
Protocol: as §1

Staph. aureus = assay: as above; type: in vivo; settings: two doses subcutaneously
Protocol: as §1

S. pyogenes [13] = assay: In vivo oral activity against S. pyogenes in mice

Substance: A41030 factor B
- pKa, first titratable group [1]: about 5.6
- pKa, second titratable group [1]: ~7.5
- possibly additional pKa's ([1]; stated as possible): > 10
- solubility (solvents) (Solubility in solvents): soluble in the same solvents as factor A
- MIC (Propionibacterium acnes [2]; P. acnes strain 44): 0.06 µg/mL
- MIC (Propionibacterium acnes [2]; P. acnes strain 79): 0.06 µg/mL
- MIC (Propionibacterium acnes [2]; P. acnes strain 101): 0.06 µg/mL
- MIC (Propionibacterium acnes [2]; P. acnes strain 103): 0.06 µg/mL
- MIC (Propionibacterium acnes [2]; P. acnes strain 104): 0.25 µg/mL
- MIC (Propionibacterium acnes [2]; P. acnes strain 105): 0.06 µg/mL
- MIC (Propionibacterium acnes [2]; P. acnes strain 106): 0.06 µg/mL
- MIC (Propionibacterium acnes [2]; P. acnes strain 107): 0.06 µg/mL
- MIC (Propionibacterium acnes [2]; P. acnes strain 5170): ≤ 0.03 µg/mL
- MIC (Propionibacterium acnes [2]; P. acnes strain 5176): 0.06 µg/mL
- MIC (Propionibacterium acnes [2]; P. acnes strain 5187): 0.06 µg/mL
- MIC (Propionibacterium acnes [2]; P. acnes strain 5191): 0.06 µg/mL
- MIC (Propionibacterium acnes [2]; P. acnes strain 5197): 0.06 µg/mL
- MIC (Propionibacterium acnes [2]; P. acnes strain 5226): 0.5 µg/mL
- MIC (Propionibacterium acnes [2]; P. acnes strain 5227): 0.06 µg/mL
- MIC (Propionibacterium acnes [2]; P. acnes strain 5228): 0.5 µg/mL
- MIC (Propionibacterium acnes [2]; P. acnes strain 5229): 0.25 µg/mL
- MIC (Propionibacterium acnes [2]; P. acnes strain 5246): 0.125 µg/mL
- MIC (Propionibacterium acnes [2]; P. acnes strain 5292): 0.06 µg/mL
- MIC (Clostridium difficile [3]): 32 µg/mL
- MIC (Clostridium perfringens): 0.5 µg/mL
- MIC (Clostridium septicum): 4 µg/mL
- MIC [4]: ≤ 0.25 µg/mL
- MIC [5]: ≤ 0.25 µg/mL
- MIC [6]: 0.5 µg/mL
- MIC (Propionibacterium acnes [7]): 16 µg/mL
- MIC (Bacteroides corrodens): 64 µg/mL
- MIC (Fusobacterium symbiosum): 1.0 µg/mL
- MIC [8]: 8 µg/mL
- MIC (Clostridium difficile [9]; Clostridium difficile 78): 0.5 µg/mL
- MIC (Clostridium difficile [9]; Clostridium difficile 107B): 0.5 µg/mL
- MIC (Clostridium difficile [9]; Clostridium difficile 111F): 1.0 µg/mL
- MIC (Clostridium difficile [9]; Clostridium difficile 1153): 1.0 µg/mL
- MIC (Clostridium difficile [9]; Clostridium difficile 2634): 1.0 µg/mL
- MIC (Clostridium difficile [9]; Clostridium difficile 3424-5B): 1.0 µg/mL
- MIC (Clostridium difficile [9]; Clostridium difficile 3816): 1.0 µg/mL
- MIC (Clostridium difficile [9]; Clostridium difficile 3950D): 1.0 µg/mL
- MIC (Clostridium difficile [9]; Clostridium difficile 6890): 1.0 µg/mL
- MIC (Clostridium difficile [9]; Clostridium difficile 8484): 1.0 µg/mL
- MIC (Clostridium difficile [9]; Clostridium difficile A-194): 1.0 µg/mL
- MIC (Clostridium difficile [9]; Clostridium difficile A-195): 1.0 µg/mL
- MIC (Clostridium difficile [9]; Clostridium difficile A-196): 1.0 µg/mL
- MIC (Clostridium difficile [9]; Clostridium difficile A-279): 1.0 µg/mL
- MIC (Clostridium difficile [9]; Clostridium difficile A-280): 0.5 µg/mL
- MIC (Clostridium difficile [9]; Clostridium difficile A-281): 1.0 µg/mL
- MIC (Clostridium difficile [9]; Clostridium difficile WAL-2112): 1.0 µg/mL
- MIC (Clostridium difficile [9]; Clostridium difficile WAL-3657): 1.0 µg/mL
- MIC (Clostridium difficile [9]; Clostridium difficile WAL-4268): 0.5 µg/mL
- MIC (Staphylococcus aureus; Staphylococcus aureus S13E, agar-dilution, 24 hours): 0.125 µg/mL
- MIC (Staphylococcus aureus; in µg/mL): 0.125 and 0.25
- MIC ([10]; Staphylococcus epidermidis EPI1, 24 hours): 0.125 µg/mL
- MIC ([10]; Staphylococcus epidermidis EPI2, 24 hours): 0.5 µg/mL
- MIC (Streptococcus pyogenes): 0.25 µg/mL
- MIC (Streptococcus pneumoniae): 0.5 µg/mL
- MIC ([11]; Streptococcus sp. Group D 9960, 24 hours): 1 µg/mL
- MIC ([11]; Streptococcus sp. Group D X66, 24 hours): 1 µg/mL
- MIC (Haemophilus influenzae; Haemophilus influenzae 251, 24 hours): 2 µg/mL
- MIC (Haemophilus influenzae; Haemophilus influenzae Brun, 24 hours): 8 µg/mL
- MIC (Escherichia coli; Escherichia coli EC14, 24 hours): 128 µg/mL
- MIC (Escherichia coli; Escherichia coli N10, 24 hours): 128 µg/mL
- MIC (Escherichia coli; Escherichia coli TEM, 24 hours): 128 µg/mL
- MIC (Klebsiella pneumoniae): 128 µg/mL
- MIC (Enterobacter cloacae; Enterobacter cloacae 265A, 24 hours): 128 µg/mL
- MIC (Enterobacter cloacae; Enterobacter cloacae EB5, 24 hours): 128 µg/mL
- MIC (Salmonella typhi; Salmonella typhi 1335, 24 hours): > 128 µg/mL
- MIC (Salmonella typhi; Salmonella typhi X514, 24 hours): > 128 µg/mL
- MIC (Serratia marcescens): 128 µg/mL
- MIC (Citrobacter freundii): 128 µg/mL
- ED50 (S. pneumoniae): 1.4 mg/kg
- ED50 (S. pyogenes [12]): 1.4 mg/kg
- ED50 (Staph. aureus): < 0.43 mg/kg
- in vivo oral activity (S. pyogenes [13]): > 300 mg./kg.×2
